Values quoted from earlier work as cited in US11458199B2, “Liposome formulations” (OPKO Pharmaceuticals, LLC, priority 2012, dated 2022).
pKd: −log10 of the molar value.

Key:
PCME = settings: retrospective study, prevention of PCME after cataract surgery
VEGF = settings: read-out: binding affinity to VEGF (Kd)
Chain of VEGF (P15692 214-315 limits assumed): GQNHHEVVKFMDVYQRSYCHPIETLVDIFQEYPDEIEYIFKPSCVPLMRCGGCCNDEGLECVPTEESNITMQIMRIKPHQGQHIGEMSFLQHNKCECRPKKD

C[C@@H]1C[C@H]2[C@@H]3CCC4=CC(=O)C=C[C@]4(C)[C@@]3(F)[C@@H](O)C[C@]2(C)[C@@]1(O)C(=O)COP(=O)(O)O [dexamethasone sodium phosphate 0.1%, dexamethasone sodium phosphate]
postoperative rate of macular edema (PCME): 4.1%

CC(=O)OCC(=O)[C@@]1(O)CC[C@H]2[C@@H]3CCC4=CC(=O)C=C[C@]4(C)[C@H]3[C@@H](O)C[C@@]21C [prednisolone acetate 1%, prednisolone acetate]
postoperative rate of macular edema (PCME): 4.0%

Ranibizumab: recombinant humanized IgG1 kappa isotype monoclonal antibody fragment that binds VEGF-A
pKd (VEGF): ~9.85
